Experimental data from the CheMixHub viscosity set.
Where “and” joins values, the source holds several entries; their conditions need not be identical. Identical values can stand only once.

Test: xn = mol fraction of the nth substance listed

COC[N+]1(C)CCCC1.O=S(=O)([N-]S(=O)(=O)C(F)(F)F)C(F)(F)F + O
101 kPa, x2 = 0.1527
Details	viscosity [mPa·s]
293.15 K	35.2
298.15 K	29.4
303.15 K	24.8
313.15 K	18.1
323.15 K	13.8

C[N+](C)(C)CCO.O=C([O-])C(F)(F)F + O
Details	viscosity [mPa·s]
298 K, 101.33 kPa, x2 = 0.8	7.7

NCCC(=O)N[C@@H](Cc1c[nH]cn1)C(=O)O + O
viscosity [mPa·s], 100 kPa
Details	x1 = 0.000358	x1 = 0.00054	x1 = 0.000713	x1 = 0.00108	x1 = 0.00126	x1 = 0.00143	x1 = 0.00162
293.15 K	1.024	1.028	1.03	1.046	1.053	1.058	1.06
298.15 K	0.908	0.909	0.915	0.928	0.933	0.938	0.938
303.15 K	0.813	0.814	0.818	0.831	0.835	0.839	0.84
308.15 K	0.732	0.733	0.738	0.747	0.752	0.756	0.756
313.15 K	0.663	0.664	0.669	0.676	0.681	0.683	0.685

O=S(=O)([O-])[O-].[Li+].[Li+] + O
Details	viscosity
293.15 K, 101 kPa, x1 = 0.007256	1.26 mPa·s
293.15 K, 101 kPa, x1 = 0.01412	1.55 mPa·s
293.15 K, 101 kPa, x1 = 0.02103	1.89 mPa·s
293.15 K, 101 kPa, x1 = 0.02766	2.31 mPa·s
293.15 K, 101 kPa, x1 = 0.03404	2.82 mPa·s
293.15 K, 101 kPa, x1 = 0.04479	4.02 mPa·s
293.15 K, 101 kPa, x1 = 0.05103	5.05 mPa·s
293.15 K, 101 kPa, x1 = 0.05234	5.28 mPa·s
293.15 K, 101 kPa, x1 = 0.05329	5.47 mPa·s
293.15 K, 101 kPa, x1 = 0.05449	5.71 mPa·s
298.15 K, 101 kPa, x1 = 0.007256	1.12 mPa·s
298.15 K, 101 kPa, x1 = 0.00868	1.152 mPa·s and 1.152 mPa·s
298.15 K, 101 kPa, x1 = 0.01412	1.38 mPa·s
298.15 K, 101 kPa, x1 = 0.02103	1.69 mPa·s
298.15 K, 101 kPa, x1 = 0.02192	1.705 mPa·s and 1.705 mPa·s
298.15 K, 101 kPa, x1 = 0.02766	2.05 mPa·s
298.15 K, 101 kPa, x1 = 0.03404	2.49 mPa·s
298.15 K, 101 kPa, x1 = 0.03935	2.947 mPa·s and 2.947 mPa·s
298.15 K, 101 kPa, x1 = 0.04479	3.49 mPa·s
298.15 K, 101 kPa, x1 = 0.05103	4.36 mPa·s
298.15 K, 101 kPa, x1 = 0.05234	4.57 mPa·s
298.15 K, 101 kPa, x1 = 0.05329	4.71 mPa·s
298.15 K, 101 kPa, x1 = 0.05449	4.95 mPa·s
298.15 K, 101.33 kPa, x1 = 0.05143	2.05 mPa·s
298.15 K, 101.33 kPa, x1 = 0.05627	3.659 mPa·s
300.15 K, 101 kPa, x1 = 0.05329	4.47 mPa·s
300.15 K, 101 kPa, x1 = 0.05449	4.7 mPa·s
303.15 K, 101 kPa, x1 = 0.007256	0.99 mPa·s
303.15 K, 101 kPa, x1 = 0.01412	1.22 mPa·s
303.15 K, 101 kPa, x1 = 0.02103	1.51 mPa·s
303.15 K, 101 kPa, x1 = 0.02766	1.82 mPa·s
303.15 K, 101 kPa, x1 = 0.03404	2.21 mPa·s
303.15 K, 101 kPa, x1 = 0.04479	3.06 mPa·s
303.15 K, 101 kPa, x1 = 0.05103	3.81 mPa·s
303.15 K, 101 kPa, x1 = 0.05234	3.99 mPa·s
303.15 K, 101 kPa, x1 = 0.05329	4.11 mPa·s
303.15 K, 101 kPa, x1 = 0.05449	4.3 mPa·s
305.15 K, 101 kPa, x1 = 0.05329	3.89 mPa·s
305.15 K, 101 kPa, x1 = 0.05449	4.1 mPa·s
308.15 K, 101 kPa, x1 = 0.05103	3.33 mPa·s
308.15 K, 101 kPa, x1 = 0.05234	3.49 mPa·s
308.15 K, 101 kPa, x1 = 0.05329	3.57 mPa·s
310.15 K, 101 kPa, x1 = 0.05329	3.39 mPa·s
311.15 K, 101 kPa, x1 = 0.05234	3.25 mPa·s
312.15 K, 101 kPa, x1 = 0.05329	3.24 mPa·s
313.15 K, 101 kPa, x1 = 0.007256	0.8 mPa·s
313.15 K, 101 kPa, x1 = 0.01412	0.99 mPa·s
313.15 K, 101 kPa, x1 = 0.02103	1.21 mPa·s
313.15 K, 101 kPa, x1 = 0.02766	1.49 mPa·s
313.15 K, 101 kPa, x1 = 0.03404	1.76 mPa·s
313.15 K, 101 kPa, x1 = 0.04479	2.42 mPa·s
313.15 K, 101 kPa, x1 = 0.05103	2.96 mPa·s
313.15 K, 101 kPa, x1 = 0.05234	3.1 mPa·s
313.15 K, 101 kPa, x1 = 0.05329	3.17 mPa·s
314.15 K, 101 kPa, x1 = 0.05329	3.11 mPa·s
316.15 K, 101 kPa, x1 = 0.05234	2.89 mPa·s
318.15 K, 101 kPa, x1 = 0.05103	2.65 mPa·s
318.15 K, 101 kPa, x1 = 0.05234	2.77 mPa·s
320.15 K, 101 kPa, x1 = 0.05234	2.66 mPa·s
323.15 K, 101 kPa, x1 = 0.00868	0.7 mPa·s
323.15 K, 101 kPa, x1 = 0.02192	1.014 mPa·s
323.15 K, 101 kPa, x1 = 0.03935	1.669 mPa·s
323.15 K, 101 kPa, x1 = 0.05103	2.37 mPa·s
323.15 K, 101 kPa, x1 = 0.05234	2.52 mPa·s
323.15 K, 101.33 kPa, x1 = 0.05088	1.378 mPa·s
